Source: patent publication US20010044445A1, “AZOLE INHIBITORS OF CYTOKINE PRODUCTION” (priority 1999, published 2001)

Test system: Human peripheral blood mononuclear cells
Assay: Human Concanavalin-A Proliferation Assay (Con HU Assay)
Assay type: cell-based
Settings: concanavalin-A stimulated human PBMC; for IC50: tritiated thymidine
Procedure: Human peripheral blood mononuclear cells were cultured in RPMI 1640 medium supplemented with 10 μg/ml gentamicin, 50 μM 2-mercaptoethanol, 1X MEM non-essential amino acids (Sigma Chemical Co., St. Louis, Mo.), 100 U/ml sodium penicillin G, 100 μg/ml streptomycin sulfate, 2 mM L-glutamine, 1 mM sodium pyruvate (Life Technologies, Grand Island, N.Y.) and 10% fetal bovine serum (Hyclone, Logan, Utah) at 37° C. with 5% CO2.
The procedure in Current Protocols in Immunology, Volume 1, Published by the Greene Publishing Associates and John Wiley & Sons, Inc, Edited by Richard Coico, 1994, hereby incorporated by reference, was followed. Briefly, 50 ml of blood from human volunteers was collected in heparinized syringes and mixed. Blood was diluted 1:1 in Dulbecco's phosphate buffered saline (D-PBS) (Life Technologies, Grand Island, N.Y.) and mixed. PBS-blood mixture was overlaid into 50 ml centrifuge tubes containing 15 ml Histopaque 1077 (Sigma Chemical Co., St. Louis, Mo.) and centrifuged at 500 X G for 30 minutes at room temperature. Cells at the interface from each Histopaque tube were removed and mixed with 5 ml of D-PBS. Each cell suspension was diluted to 50 ml with D-PBS, mixed and centrifuged at 400 X G for 15 minutes at room temperature. After most of the supernatant was removed, cells were resuspended to 40 ml with D-PBS per tube (2 tubes per donor). Cells were centrifuged at 400 X G for 10 minutes at room temperature. Pellets were resuspended in 10 ml of supplemented RPMI 1640 and cell number determined with a Coulter counter. Cells were diluted to a concentration of 0.5×10^6 cells per mL.
The procedure in Current Protocols in Immunology, Volume 1, Published by the Greene Publishing Associates and John Wiley & Sons, Inc, Edited by Richard Coico, 1994, hereby incorporated by reference, was followed. Briefly, test compounds were added to appropriate wells on 96-well tissue culture plates (Corning Glass Works, Corning, N.Y.) in 20 µl of supplemented RPMI 1640. Human peripheral blood mononuclear cells were added to each well in 100 μl volumes (final cell concentration equal to 50,000 cells per well). After 15 minutes, 100 μl of 5 μg/ml concanavalin-A (Sigma Chemical Co., St. Louis, Mo.) in supplemented RPMI 1640 was added to a final concentration of 2.5 μg/ml. Plates were incubated for 3 days at 37° C. with 5% CO2. On day 3, plates were pulsed with 0.5 μCi/well tritiated thymidine (New England Nuclear, Boston, Mass.). After 6 hours, plates were harvested on a Tomatec 96-well havester (Orange, Conn.). Glass filter mats were counted on a Matrix 9600 direct beta counter (Packard, Meriden, Conn.).

[1] = Homo sapiens, PBMC, 72 h, concentration 10 μm (in parentheses in the cell), 3 days, read-out: % Inhibition of proliferation (at concentrations of 1,10, or 100 μm)
[2] = concentration 1 μm (in parentheses in the cell), 3 days
[3] = Homo sapiens, PBMC, 72 h, concentration 100 μm (in parentheses in the cell), 3 days, read-out: % Inhibition of proliferation (at concentrations of 1,10, or 100 μm)
[4] = concentration 10 μm (in parentheses in the cell), 3 days
[5] = concentration 100 μm (in parentheses in the cell), 3 days

CC1CCCCC1C(=O)Nc1ccc(-n2nc(C(F)(F)F)cc2C(F)(F)F)cc1 (stereo not drawn) [Example 27, N-[4-[3,5-bis(trifluoromethyl)-1H-pyrazol-1-yl]phenyl]-2-methylcyclohexanecarboxamide]
inhibition at 10 µM [1]: 100%
IC50 (Homo sapiens, PBMC): 0.299 µM

O=C(CCCC[C@@H]1SC[C@@H]2NC(=O)N[C@@H]21)Nc1ccc(-n2nc(C(F)(F)F)cc2C(F)(F)F)cc1 [Example 23, 3a(S)-(3aα,4β,6aα)-N-[4-[3,5-bis(trifluoromethyl)-1H-pyrazol-1-yl]phenyl]hexahydro-2-oxo-1H-thieno[3,4-d]limidazole-4-pentanamide]
% Inhibition of proliferation (at concentrations of 1,10, or 100 μm) [2]: 4(1) %

O=C(Nc1ccc(-n2nc(C(F)(F)F)cc2C(F)(F)F)cc1)c1ccc(Br)cc1Cl [Example 217, N-[4-[3,5-bis(trifluoromethyl)-1H-pyrazol-1-yl]phenyl]-4-bromo-2-chlorobenzamide]
inhibition at 10 µM [1]: 100%
IC50 (Homo sapiens, PBMC): 0.218 µM

O=C(Nc1ccc(-n2nc(C(F)(F)F)cc2C(F)(F)F)cc1)c1ccccn1 [Example 121, N-[4-[3,5-bis(trifluoromethyl)-1H-pyrazol-1-yl]phenyl]-2-pyridinecarboxamide]
inhibition at 100 µM [3]: 53%
IC50 (Homo sapiens, PBMC): 10.6 µM

N#Cc1cccc(NCc2ccc(-n3nc(C(F)(F)F)cc3C(F)(F)F)cc2)c1 [Example 95, 3-[4-[[[3,5-bis(trifluoromethyl)-1H-pyrazol-1-yl]phenyl]methyl]amino]benzonitrile]
IC50: 7.28 µM
% Inhibition of proliferation (at concentrations of 1,10, or 100 μm) [4]: 47(10) %

Cc1cc(Br)ccc1NC(=O)Nc1ccc(-n2nc(C(F)(F)F)cc2C(F)(F)F)cc1 [Example 77, N-[4-[3,5-bis(trifluoromethyl)-1H-pyrazol-1-yl]phenyl]-N′-(4-bromo-2-methylphenyl)urea]
inhibition at 10 µM [1]: 93%
IC50 (Homo sapiens, PBMC): 0.655 µM

O=C(Nc1ccc(-n2nc(-c3nccs3)cc2Cl)cc1)c1ccncc1F [Example 347, N-(4-(5-chloro-3-(1,3-thiazol-2-yl)-1H-pyrazol-1-yl)phenyl)-3-fluoroisonicotinamide]
IC50 (Homo sapiens, PBMC): 0.288 µM

Cc1ccc([N+](=O)[O-])cc1NC(=O)Nc1ccc(-n2nc(C(F)(F)F)cc2C(F)(F)F)cc1 [Example 50]
% Inhibition of proliferation (at concentrations of 1,10, or 100 μm) [2]: 2(1) %

COc1cc(C(F)(F)F)nn1-c1ccc(NC(=O)c2ccncc2)cc1 [Example 312, N-(4-(5-methoxy-3-(trifluoromethyl)-1H-pyrazol-1-yl)phenyl)isonicotinamide]
IC50 (Homo sapiens, PBMC): 0.298 µM

O=C(Nc1ccc(-n2nc(-c3cncc(Br)c3)cc2OC(F)F)cc1)c1ccncc1F [Example 339, N-(4-(3-(5-bromo-3-pyridinyl)-5-(difluoromethoxy)-1H-pyrazol-1-yl)phenyl)-3-fluoroisonicotinamide]
IC50 (Homo sapiens, PBMC): 0.369 µM

O=C(Nc1ccc(-n2nc(C(F)(F)F)cc2C(F)(F)F)cc1)c1cc(Cl)cnc1Cl [Example 270, N-[4-[3,5-bis(trifluoromethyl)-1H-pyrazol-1-yl]phenyl]-2,5-dichloro-3-pyridinecarboxamide]
inhibition at 10 µM [1]: 100%
IC50 (Homo sapiens, PBMC): 0.228 µM

Cn1cccc1-c1cc(OC(F)F)n(-c2ccc(NC(=O)c3ccncc3F)cc2)n1 [Example 360, N-(4-(5-(difluoromethoxy)-3-(1-methyl-1H-pyrrol-2-yl)-1H-pyrazol-1-yl)phenyl)-3-fluoroisonicotinamide]
IC50 (Homo sapiens, PBMC): 0.329 µM

O=C(Nc1ccc(-n2nc(C(F)(F)F)cc2Cl)cc1)c1cccnc1F [Example 325, N-(4-(5-chloro-3-(trifluoromethyl)-1H-pyrazol-1-yl)phenyl)-2-fluoronicotinamide]
IC50 (Homo sapiens, PBMC): 0.172 µM

N-(4-(5-acetyl-3-(trifluoromethyl)-1H-pyrazol-1-yl)phenyl)-2-fluorobenzamide [Example 305]
IC50: 0.17 µM

CCCC(=O)Nc1ccc(-n2nc(C(F)(F)F)cc2C(F)(F)F)cc1 [Example 175, N-[4-[3,5-Bis(trifluoromethyl)-1H-pyrazol-1-yl]phenyl]butanamide]
inhibition at 100 µM [3]: 100%
IC50 (Homo sapiens, PBMC): 0.562 µM

CSc1cc(C(F)(F)F)nn1-c1ccc(NC(=O)c2ccccc2F)cc1 [Example 309, 2-fluoro-N-(4-(5-(methylsulfanyl)-3-(trifluoromethyl)-1H-pyrazol-1-yl)phenyl)benzamide]
IC50 (Homo sapiens, PBMC): 0.032 µM

N#Cc1cccc(/C=C\c2ccc(-n3nc(C(F)(F)F)cc3C(F)(F)F)cc2)c1 [Example 139, (Z)-3-[2-[4-[3,5-bis(trifluoromethyl)-1H-pyrazol-1-yl]phenyl]ethenyl]benzonitrile]
inhibition at 10 µM [1]: 5%

CCCCCCCc1ccc(C(=O)Nc2ccc(-n3nc(C(F)(F)F)cc3C(F)(F)F)cc2)cc1 [Example 111, N-[4-[3,5-bis(trifluoromethyl)-1H-pyrazol-1-yl]phenyl]-4-heptybenzamide]
IC50: 41 µM
% Inhibition of proliferation (at concentrations of 1,10, or 100 μm) [5]: 76(100) %

O=C(Nc1ccc(-n2nc(C(F)(F)F)cc2C(F)(F)F)cc1)c1sccc1Br [Example 161, N-[4-[3,5-bis(trifluoromethyl)-1H-pyrazol-1-yl]phenyl]-3-bromo-2-thiophenecarboxamide]
inhibition at 100 µM [3]: 99%
IC50 (Homo sapiens, PBMC): 0.231 µM

O=C(Nc1ccc(-n2nc(C(F)(F)F)cc2C(F)(F)F)cc1)C1CCCCC1 [Example 124, N-[4-[3,5-bis(trifluoromethyl)-1H-pyrazol-1-yl]phenyl]cyclohexanecarboxmide]
IC50: 0.285 µM
% Inhibition of proliferation (at concentrations of 1,10, or 100 μm) [5]: 99(100) %

O=C(Nc1ccc(-n2nc(C(F)(F)F)cc2C(F)(F)F)cc1)c1c(F)c(F)c(Br)c(F)c1F [Example 236, N-[4-[3,5-bis(trifluoromethyl)-1H-pyrazol-1-yl]phenyl]-4-bromo-2,3,5,6-tetrafluorobenzamide]
inhibition at 10 µM [1]: 100%
IC50 (Homo sapiens, PBMC): 0.18 µM

O=C(Nc1ccc(-n2nc(C(F)(F)F)cc2-c2cccs2)cc1)c1ccccc1F [Example 308, 2-fluoro-N-(4-(5-(2-thienyl)-3-(trifluoromethyl)-1H-pyrazol-1-yl)phenyl)benzamide]
IC50 (Homo sapiens, PBMC): 0.309 µM

N#Cc1cc(NC(=O)c2ccccc2F)ccc1-n1nc(C(F)(F)F)cc1C(F)(F)F [Example 299, N-(4-(3,5-bis(trifluoromethyl)-1H-pyrazol-1-yl)-3-cyanophenyl)-2-fluorobenzamide]
IC50 (Homo sapiens, PBMC): 0.269 µM

COc1ccc(C(=O)Nc2ccc(-n3nc(C(F)(F)F)cc3C(F)(F)F)cc2)cc1OC [Example 98, N-[4-[3,5-bis(trifluoromethyl)-1H-pyrazol-1-yl]phenyl]-3-4-dimethoxybenzamide]
IC50: 4.92 µM
% Inhibition of proliferation (at concentrations of 1,10, or 100 μm) [5]: 94(100) %

CN(C(=O)c1ccc([N+](=O)[O-])cc1Cl)c1ccc(-n2nc(C(F)(F)F)cc2C(F)(F)F)cc1 [Example 81, N-[4-[3,5-bis(trifluoromethyl)-1H-pyrazol-1-yl]phenyl]-2-chloro-4-nitro-N-methylbenzamide]
inhibition at 1 µM (Homo sapiens, PBMC, 72 h, concentration 1 μm (in parentheses in the cell), 3 days, read-out: % Inhibition of proliferation (at concentrations of 1,10, or 100 μm)): 30%

COc1cc(SC)ccc1C(=O)Nc1ccc(-n2nc(C(F)(F)F)cc2C(F)(F)F)cc1 [Example 179, N-[4-[3,5-bis(trifluoromethyl)-1H-pyrazol-1-yl]phenyl]-2-methoxy-4-(methythio)benzamide]
IC50: 8.87 µM
% Inhibition of proliferation (at concentrations of 1,10, or 100 μm) [4]: 47(10) %

Cn1ccc(-c2cc(C(F)(F)F)nn2-c2ccc(NC(=O)c3ccncc3F)cc2)c1 [Example 344, 3-fluoro-N-(4-(5-(1-methyl-1H-pyrrol-3-yl)-3-(trifluoromethyl)-1H-pyrazol-1-yl)phenyl)isonicotinamide]
IC50 (Homo sapiens, PBMC): 0.251 µM

O=C(Nc1ccc(-n2nc(C(F)(F)F)cc2C(F)(F)F)cc1)c1cccc([N+](=O)[O-])c1Br [Example 205, N-[4-[3,5-bis(trifluoromethyl)-1H-pyrazol-1-yl]phenyl]-2-bromo-3-nitrobenzamide]
inhibition at 10 µM [1]: 100%
IC50 (Homo sapiens, PBMC): 0.196 µM
